Results on 15 compounds are retold here after US9102675B2, “3-Cyanoaryl-1H-pyrrolo[2,3-B] pyridine derivatives” (MERCK PATENT GMBH, priority 2011, dated 2015).

The target of assay [1] is T1, IKKε (Homo sapiens, UniProt Q14164).
T1 sequence (Q14164 1-716): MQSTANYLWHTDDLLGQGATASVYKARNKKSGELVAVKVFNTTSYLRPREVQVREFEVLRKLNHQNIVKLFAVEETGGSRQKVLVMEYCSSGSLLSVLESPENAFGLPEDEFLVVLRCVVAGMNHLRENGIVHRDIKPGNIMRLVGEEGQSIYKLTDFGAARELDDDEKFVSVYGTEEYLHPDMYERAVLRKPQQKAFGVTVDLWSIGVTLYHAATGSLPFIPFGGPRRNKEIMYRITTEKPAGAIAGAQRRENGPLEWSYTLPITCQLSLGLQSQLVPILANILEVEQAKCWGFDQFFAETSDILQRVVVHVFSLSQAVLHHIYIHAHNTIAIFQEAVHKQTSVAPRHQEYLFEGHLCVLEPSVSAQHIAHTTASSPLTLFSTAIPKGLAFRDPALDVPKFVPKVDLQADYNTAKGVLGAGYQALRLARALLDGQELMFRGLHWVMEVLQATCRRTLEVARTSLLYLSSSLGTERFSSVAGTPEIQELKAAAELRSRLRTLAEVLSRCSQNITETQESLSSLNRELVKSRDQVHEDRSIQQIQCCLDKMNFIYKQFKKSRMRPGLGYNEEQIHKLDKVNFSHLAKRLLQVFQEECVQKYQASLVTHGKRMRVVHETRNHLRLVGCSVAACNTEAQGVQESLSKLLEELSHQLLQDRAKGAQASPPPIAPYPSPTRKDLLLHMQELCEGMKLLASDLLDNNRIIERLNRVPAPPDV
Briefly: IKKε kinase assay (384-well flashplate assay). Particulars: 10 μM ATP, 1 nM IKKε; read-out: IKKε enzyme assay IC50. Type of assay: biochemical. The protocol:
Test for the Inhibition of IKKε
IKKε—Kinase Assay (IKKepsilon)
The kinase assay is performed as 384-well flashplate assay (for example for Topcount measurement).
1 nM IKKε, 800 nM biotinylated IκKα(19-42) peptide (Biotin-C6-C6-[…]) and 10 μM ATP (spiked with 0.3 μCi of ^33P-ATP/well) are incubated at 30° C. for 2 hours in a total volume of 50 μl (10 mM MOPS, 10 mM Mg acetate, 0.1 mM EGTA, 1 mM dithiothreitol, 0.02% of Brij35, 0.1% of BSA, 0.1% of BioStab, pH 7.5) with or without test compound. The reaction is stopped using 25 μl of 200 mM EDTA. After 30 min at room temperature, the liquid is removed, and each well is washed three times with 100 μl of 0.9% sodium chloride solution. Non-specific reaction is determined in the presence of 3 μM MSC2119074 (BX-795). The radioactivity is measured using a Topcount (Perkin Elmer). The results (for example IC50 values) are calculated using program tools provided by the IT Department (for example AssayExplorer, Symyx).

Assay [2] relates to TBK1 + IKKε. Put plainly: TBK1 + IKKε cell assay: dose response inhibition of phospho-IRF3 @ Ser 386 in MDA-MB-468 cells after poly(I:C) stimulation. It counts as cell-based. Particulars: nuclear phospho-IRF3 Ser386, read-out: TBK1 + IKKε cell assay IC50. An excerpt: Dose response inhibition of phospho-IRF3 @ Ser 386 cell/MDAMB468/INH/PHOS/IMAG/pIRF3
Although TBK1 and IKKε are mainly known as key substances in the innate immune response, recent findings have indicated a role for TBK1 and IKKε in Ras-induced oncogenic transformation. TBK1 was identified as RaIB effector in the Ras-like (RaI)-guanine nucleotide exchange factor (GEF) pathway that is required for Ras-induced transformation. TBK1 directly activates IRF3 which, on phosphorylation, homodimerises and translocates to the nucleus, where it activates processes associated with inflammation, immune regulation, cell survival and proliferation.
This assay has been developed in order to assess the efficacy/potency of TBK1/IKKε inhibitor compounds based on the immunocytochemical detection of nucleus-localised phospho-IRF3, a target directly downstream of TBK1. Treatment with polyinosine-polycytidylic acid (poly(I:C), a synthetic analogue of double-stranded RNA (dsRNA), a molecular pattern associated with viral infection and recognised by Toll-like receptor 3 (TLR3) is used to induce TBK1/IKKε activity and IRF3 phosphorylation at Ser386.
Day 1: MDA-MB-468 cells are detached using HyQ-Tase, counted and sown into a 384-well plate with TC surface and clear bottom in a density of 10,000 cells per well in a total volume of 35 μl of complete medium. Alternatively, the cells are sown directly from frozen glass vials.
Day 2: The cells are pre-treated with inhibitor compounds for 1 h prior to poly(I:C) stimulation. After incubation for 2 h with poly(I:C), the cells are fixed in (para)formaldehyde (PFA) and permeabilised using methanol (MeOH). The cells are then blocked and incubated with an anti-pIRF3 antibody at 4° C. overnight.
Day 3: The primary antibody is washed off, an AlexaFluor488-conjugated secondary antibody is added, the cells are contrast-stained with propidium iodide, followed by image acquisition on an IMX ultra-high content reader.
Plating medium=culture medium: • RPMI 1640, Invitrogen #31870 • 10% of FCS, Invitrogen #10270-106 • 2 mM Glutamax, Invitrogen #35050-038 • 1 mM sodium pyruvate, Invitrogen #11360 • 1% of Pen/Strep • 37° C., 5% of CO2
Plates: 384-well bottom cell culture plates with black/clear bottom, Falcon #35 3962 or Greiner #781090
Subcultivation: HyQ-Tase, Thermo Scientific (HyClone) # SV30030.01
Poly(I:C) (LMW), Invitrogen # tlrl-picw (prepare 20 mg/ml stock solution in sterile PBS, denature 30 min 55° C. in a water bath, slowly cool to RT, store at −20° C. in aliquots)
a 10-point dose-response curve with MSC2119074A-4=BX-795 is included in each experiment
Formaldehyde (methanol-free, 16%, ultrapure EM grade), Polysciences #18814 (storage RT), final conc.: 4%
Goat serum, PAA # B15-035 (storage 4° C., long term −20° C.), final conc.: 10%
BSA (IgG- and protease-free, 30%), US-Biological # A1317 (storage 4° C., long term −20° C.), final conc.: 2%
Tween 20 detergent, Calbiochem #655204 (storage RT), (prepare 10% stock solution in water; final conc.: 0.1%)
Anti-pIRF-3 rabbit mAb, Epitomics #2526-B (storage −20° C.), final conc.: 1:2000 in PBS/2% of BSA
Alexa Fluor goat-anti-rabbit-488, Invitrogen # A11034 or # A11008 (storage 4° C., dark), final conc.: 1:2000 in PBS/2% of BSA/0.1% of Tween
Propidium iodide (PI), Fluka #81845, 1 mg/ml in H2O (storage 4° C., dark), final conc.: 0.2 μg/ml
(1) Sow 10,000 cells/well/35μof complete RPMI +10% FCS into 384-well bottom cell culture plates with black / clear bottom,
(2) Incubate for 2 h at room temperature on the bench, followed by further incubation for 22 h at 37° C., 5% of CO2 and 90% RH. […]

Setting [3] is: Homo sapiens, MDA-MB-468, MDA-MB-468 cells.

Like-named read-outs stand apart in the source and are kept apart here. Some results are limits rather than exact numbers.

Usually IC50 stands for the concentration that gives 50% inhibition.

With `N#Cc1cc(-c2c[nH]c3ncccc23)ccc1OC1CCOCC1` [Compound A1, 5-(1H-pyrrolo[2,3-b]pyridin-3-yl)-2-tetrahydropyran-4-yloxybenzonitrile], the IC50 is under 300 nM in assay [1] and 3000 to 50000 nM in assay [2] (setting [3]).
For `Cn1cc(-c2cnc3[nH]cc(-c4ccc(OC5CCOCC5)c(C#N)c4)c3c2)cn1` [Compound A4, 5-[5-(1-methylpyrazol-4-yl)-1H-pyrrolo[2,3-b]pyridin-3-yl]-2-tetrahydropyran-4-yloxybenzonitrile], the results for the IC50 in assay [1] and in assay [2] (setting [3]) were under 300 nM and 300 to 3000 nM, respectively.
With `N#Cc1cc(-c2c[nH]c3ncc(-c4cnn(CCN5CCOCC5)c4)cc23)ccc1OC1CCOCC1` [Compound A7, 5-[5-[1-(2-morpholinoethyl)pyrazol-4-yl]-1H-pyrrolo[2,3-b]pyridin-3-yl]-2-tetrahydropyran-4-yloxybenzonitrile], the IC50 in assay [1] was under 300 nM; in assay [2] (setting [3]), 300 to 3000 nM.
Take `N#Cc1cc(-c2c[nH]c3ncc(-c4ccc(N5CCOCC5)cc4)cc23)ccc1OC1CCOCC1` [Compound A8, 5-[5-(4-morpholinophenyl)-1H-pyrrolo[2,3-b]pyridin-3-yl]-2-tetrahydropyran-4-yloxybenzonitrile]: the IC50 was under 300 nM in assay [1] and 3000 to 50000 nM in assay [2] (setting [3]).
In the same order, the values of `N#Cc1cc(-c2c[nH]c3ncc(-c4cnn(CCN5CCCC5)c4)cc23)ccc1OC1CCOCC1` [Compound A9, 5-[5-[1-(2-pyrrolidin-1-ylethyl)pyrazol-4-yl]-1H-pyrrolo[2,3-b]pyridin-3-yl]-2-tetrahydropyran-4-yloxybenzonitrile] are under 300 nM and 300 to 3000 nM.
Regarding `COCCn1cc(-c2cnc3[nH]cc(-c4ccc(OC5CCOCC5)c(C#N)c4)c3c2)cn1` [Compound A10, 5-[5-[1-(2-methoxyethyl)pyrazol-4-yl]-1H-pyrrolo[2,3-b]pyridin-3-yl]-2-tetrahydropyran-4-yloxybenzonitrile], the concentration for half-maximal inhibition (IC50) in assay [1] and in assay [2] (setting [3]) was under 300 nM in each case.
As for `N#Cc1cc(-c2c[nH]c3ncc(-c4cnn(C5CCNCC5)c4)cc23)ccc1OC1CCOCC1` [Compound A12, 5-[5-(1-piperidin-4-yl-1H-pyrazol-4-yl)-1H-pyrrolo[2,3-b]pyridin-3-yl]-2-(tetrahydropyran-4-yloxy)benzonitrile], the results for the IC50 in assay [1] and in assay [2] (setting [3]) were under 300 nM and 300 to 3000 nM, respectively.
Regarding `CN1CCC(Oc2ccc(-c3c[nH]c4ncc(-c5cnn(C)c5)cc34)cc2C#N)CC1` [Compound A13, 2-(1-methylpiperidin-4-yloxy)-5-[5-(1-methyl-1H-pyrazol-4-yl)-1H-pyrrolo[2,3-b]pyridin-3-yl]benzonitrile], the results for the IC50 in assay [1] and in assay [2] (setting [3]) were under 300 nM and 3000 to 50000 nM, respectively.
Turning to `N#Cc1cc(-c2c[nH]c3ncc(-c4cnn(CCO)c4)cc23)ccc1OC1CCOCC1` [Compound A15, 5-[5-[1-(2-hydroxyethyl)pyrazol-4-yl]-1H-pyrrolo[2,3-b]pyridin-3-yl]-2-tetrahydropyran-4-yloxybenzonitrile], the half-maximal inhibitory concentration (IC50) in assay [1] and in assay [2] (setting [3]) was under 300 nM in each case.
Consider `CN1CCC(n2cc(-c3cnc4[nH]cc(-c5ccc(OC6CCOCC6)c(C#N)c5)c4c3)cn2)CC1` [Compound A16, 5-[5-[1-(1-methyl-4-piperidyl)pyrazol-4-yl]-1H-pyrrolo[2,3-b]pyridin-3-yl]-2-tetrahydropyran-4-yloxybenzonitrile], for which the IC50 in assay [1] and in assay [2] (setting [3]) was under 300 nM throughout.
As for `CN1CCN(c2cnc3[nH]cc(-c4ccc(OC5CCOCC5)c(C#N)c4)c3c2)CC1` [Compound A17, 5-[5-(4-methylpiperazin-1-yl)-1H-pyrrolo[2,3-b]pyridin-3-yl]-2-tetrahydropyran-4-yloxybenzonitrile], the results for the IC50 in assay [1] and in assay [2] (setting [3]) were 300 to 3000 nM and 3000 to 50000 nM, respectively.
The matching figures for `N#Cc1cc(-c2c[nH]c3ncc(-c4cnn(C5CCNCC5)c4)cc23)cnc1OC1CCOCC1` [Compound A18, 5-[5-[1-(4-piperidyl)pyrazol-4-yl]-1H-pyrrolo[2,3-b]pyridin-3-yl]-2-tetrahydropyran-4-yloxypyridine-3-carbonitrile]: under 300 nM and 300 to 3000 nM.
For `CN1CCC(n2cc(-c3cnc4[nH]cc(-c5ccc(OC6CCOCC6)c(C#N)c5)c4c3)cn2)CC1` [Compound A20, 5-[5-[1-(1-methyl-4-piperidyl)pyrazol-4-yl]-1H-pyrrolo[2,3-b]pyridin-3-yl]-2-tetrahydropyran-4-yloxybenzonitrile], the IC50 was under 300 nM in assay [1] and 300 to 3000 nM in assay [2] (MDA-MB-468 cells).
Consider `N#Cc1cc(-c2c[nH]c3ncc(OCCN4CCOCC4)cc23)ccc1OC1CCOCC1` [Compound A21, 5-[5-(2-morpholinoethoxy)-1H-pyrrolo[2,3-b]pyridin-3-yl]-2-tetrahydropyran-4-yloxybenzonitrile], for which the IC50 in assay [1] was under 300 nM; in assay [2] (setting [3]), 300 to 3000 nM.
For the compound `N#Cc1cc(-c2c[nH]c3ncc(-c4cn(C5CCNCC5)nn4)cc23)ccc1OC1CCOCC1` [Compound A22, 5-[5-[1-(4-piperidyl)triazol-4-yl]-1H-pyrrolo[2,3-b]pyridin-3-yl]-2-tetrahydropyran-4-yloxybenzonitrile], the values for the IC50 in assay [1] and in assay [2] (MDA-MB-468 cells) were under 300 nM and 300 to 3000 nM, respectively.
